Legend:
Assay type in all cases: cell-based
[1] = system: H1299 (non small cell lung carcinoma) cells; assay: in vitro inhibition of H1299 cells
Method: (§1) Various exemplary 5-fluoro-4-pyrmidineamine compounds (illustrated in TABLE 1, infra) were synthesized as described herein and tested for their ability to inhibit A549 (lung carcinoma), DLD-1 (colorectal adenocarcinoma), H1299 (non small cell lung carcinoma), HCT116 (colorectal carcinoma), HELA (cervical adenocarcinoma) and/or U2OS (bone osterosarcoma) cells in vitro. […] A blank indicates the particular compound was […].

[2] = system: HCT116 (colorectal carcinoma) cells; assay: in vitro inhibition of HCT116 cells
Method: as §1

[3] = system: JAR (placental choriocarcinoma); assay: additional cell line JAR
Method: (§2) Compound 1 was tested against the following additional cell lines: ACHN (renal cell adenocarcimona), JAR (placental choriocarcinoma), MCF7 (estrogen-dependent breast adenocarcinoma), MDA-MB-231 (estrogen independent breast adenocarcinoma), SKMEL28 (human melanoma) and SKMEL5 (human melanoma). In all cases, the IC50 was less than 1 μM.

[4] = system: SKMEL28 (human melanoma); assay: additional cell line SKMEL28
Method: as §2

[5] = system: U2OS (bone osterosarcoma) cells; assay: in vitro inhibition of U2OS cells
Method: as §1

[6] = system: SKMEL5 (human melanoma); assay: additional cell line SKMEL5
Method: as §2

[7] = system: MDA-MB-231 (estrogen independent breast adenocarcinoma); assay: additional cell line MDA-MB-231; settings: MDA-MB-231 cell line
Method: as §2

[8] = system: ACHN (renal cell adenocarcimona); assay: additional cell line ACHN
Method: as §2

[9] = system: MCF7 (estrogen-dependent breast adenocarcinoma); assay: additional cell line MCF7
Method: as §2

[10] = system: A549 (lung carcinoma) cells; assay: in vitro inhibition of A549 cells
Method: as §1

[11] = system: HELA (cervical adenocarcinoma) cells; assay: in vitro inhibition of HELA cells
Method: as §1

[12] = system: DLD-1 (colorectal adenocarcinoma) cells; assay: in vitro inhibition of DLD-1 cells; settings: DLD-1 (colorectal adenocarcinoma) cells in vitro
Method: as §1

[13] = system: A549; assay: 9-point anti-proliferation assay, A549; settings: A549, 9-point anti-proliferation assay
[14] = system: Colo205 (colorectal adenocarcinoma); assay: 9-point anti-proliferation assay, Colo205; settings: Colo205, 9-point anti-proliferation assay
[15] = system: HCT116; assay: 9-point anti-proliferation assay, HCT116; settings: HCT116, 9-point anti-proliferation assay
[16] = system: Miapaca2 (pancreatic carcinoma); assay: 9-point anti-proliferation assay, Miapaca2; settings: Miapaca2, 9-point anti-proliferation assay

Compound	IC50 [1] [nM]	IC50 [10] [µM]	also measured
CN(c1ccc2c(c1)OCCO2)c1nc(Cl)ncc1F [Compound 1, 2-chloro-N-4-(3,4-ethylenedioxyphenyl)-5-fluoro-N-4-methyl-4-pyrimidineamine]	≤ 1000	≤ 1	IC50 [2]: ≤ 1 µM; IC50 [3]: < 1000 nM; IC50 [4]: < 1000 nM; IC50 [5]: ≤ 1 µM; IC50 [6]: < 1000 nM; IC50 [7]: < 1000 nM; IC50 [8]: < 1000 nM; IC50 [9]: < 1000 nM; IC50 [11]: ≤ 1 µM
COc1ccc(N(C)c2nc(Cl)ncc2F)cc1OC [Compound 2]	≤ 1000	≤ 1	
COc1c(Cl)cc(N(C)c2nc(Cl)ncc2F)cc1Cl [Compound 5]	≤ 10000	1 to 10	
COc1cc(N(C)c2nc(Cl)ncc2F)ccc1Cl [Compound 6]	> 20000	> 20	
COc1ccc(N(C)c2nc(Cl)ncc2F)cc1Cl [Compound 7]	≤ 1000	≤ 1	
CCCN(c1ccc(OC)c(Cl)c1)c1nc(Cl)ncc1F [Compound 9]	≤ 10000	1 to 10	
COc1cc(N(C)c2nc(Cl)ncc2F)cc(OC)c1OC [Compound 10]	> 20000	> 20	
Cc1cc(N(C)c2nc(Cl)ncc2F)cc(C)c1Cl [Compound 11]	> 20000	> 20	
COc1cc(OC)cc(N(C)c2nc(Cl)ncc2F)c1 [Compound 12]	> 20000	> 20	
COc1ncc(F)c(N(C)c2ccc3c(c2)OCCO3)n1 [Compound 15]	1000 to 10000	≤ 10	
CN(c1ccc2c(c1)OCCO2)c1nc(-c2ccccc2)ncc1F [Compound 18, N4-(3,4-Ethylenedioxyphenyl)-5-fluoro-N-4-methyl-2-(phenyl)-4-pyrimidineamine]	≤ 1000	≤ 1	
COc1ccc(-c2ncc(F)c(N(C)c3ccc4c(c3)OCCO4)n2)cc1OC [Compound 20, N4-(3,4-Ethylenedioxyphenyl)-2-(3,4-dimethoxyphenyl)-5-fluoro-N-4-methyl-4-pyrimidineamine]	> 20000	> 20	IC50 [12]: > 20 µM; IC50 [2]: > 20 µM; IC50 [5]: > 20 µM; IC50 [11]: > 20 µM
CN(c1ccc2c(c1)OCCO2)c1nc(-c2ccc3c(c2)OCO3)ncc1F [Compound 21, N4-(3,4-Ethylenedioxyphenyl)-5-fluoro-N-4-methyl-2-(3,4-methylenedioxyphenyl)-4-pyrimidineamine]	1000 to 10000	≤ 10	IC50 [12]: ≤ 20 µM; IC50 [2]: ≤ 20 µM; IC50 [5]: ≤ 20 µM; IC50 [11]: ≤ 20 µM
CN(c1ccc2c(c1)OCCO2)c1nc(-c2ccco2)ncc1F [Compound 22, N4-(3,4-Ethylenedioxyphenyl)-5-fluoro-2-(2-furyl)-N-4-methyl-4-pyrimidineamine]	≤ 1000	≤ 1	IC50 [12]: ≤ 10 µM; IC50 [2]: ≤ 10 µM; IC50 [5]: ≤ 10 µM; IC50 [11]: ≤ 10 µM
CN(c1ccc2c(c1)OCCO2)c1nc(-c2cccc(N)c2)ncc1F [Compound 23, 2-(3-Aminophenyl)-N-4-(3,4-ethylenedioxyphenyl)-5-fluoro-N-4-methyl-4-pyrimidineamine]	≤ 1000	≤ 1	IC50 [12]: ≤ 10 µM; IC50 [2]: ≤ 10 µM; IC50 [5]: ≤ 10 µM; IC50 [11]: ≤ 10 µM
CN(c1ccc2c(c1)OCCO2)c1nc(-c2ccsc2)ncc1F [Compound 25, N4-(3,4-Ethylenedioxyphenyl)-5-fluoro-N-4-methyl-2-(3-thienyl)-4-pyrimidineamine]	≤ 1000	≤ 1	IC50 [13]: < 1000 nM; IC50 [14]: < 1000 nM; IC50 [12]: ≤ 1 µM; IC50 [2]: ≤ 1 µM; IC50 [5]: ≤ 1 µM; IC50 [15]: < 1000 nM; IC50 [16]: < 1000 nM; IC50 [11]: ≤ 1 µM

Compound	IC50 [1] [nM]	IC50 [10] [µM]	also measured
CN(c1ccc2c(c1)OCCO2)c1nc(-c2ccoc2)ncc1F [Compound 26, N4-(3,4-Ethylenedioxyphenyl)-5-fluoro-2-(3-furyl)-N-4-methyl-4-pyrimidineamine]	≤ 1000	≤ 1	IC50 [12]: ≤ 1 µM; IC50 [2]: ≤ 1 µM; IC50 [5]: ≤ 1 µM; IC50 [11]: ≤ 1 µM
CN(c1ccc2c(c1)OCCO2)c1nc(-c2cccnc2)ncc1F [Compound 27, N4-(3,4-Ethylenedioxyphenyl)-5-fluoro-N-4-methyl-2-(pyridin-3-yl)-4-pyrimidineamine]	1000 to 10000	≤ 10	
CN(c1ccc2c(c1)OCCO2)c1nc(-c2ccncc2)ncc1F [Compound 28, N4-(3,4-Ethylenedioxyphenyl)-5-fluoro-N-4-methyl-2-(pyridin-4-yl)-4-pyrimidineamine]	≤ 1000	≤ 1	
Cc1noc(C)c1-c1ncc(F)c(N(C)c2ccc3c(c2)OCCO3)n1 [Compound 29, 2-(3,5-Dimethylisoxazol-4-yl)-N-4-(3,4-ethylenedioxyphenyl)-5-fluoro-N-4-methyl-4-pyrimidineamine]	1000 to 10000	≤ 10	
CN(c1ccc2c(c1)OCCO2)c1nc(-c2nccs2)ncc1F [Compound 30, N4-(3,4-Ethylenedioxyphenyl)-5-fluoro-N-4-methyl-2-(thiazol-2-yl)-4-pyrimidineamine]	1000 to 10000	≤ 10	
CN(c1ccc2c(c1)OCCO2)c1nc(-c2ccc[nH]2)ncc1F [Compound 31, N4-(3,4-Ethylenedioxyphenyl)-5-fluoro-N-4-methyl-2-(1H-pyrrol-2-yl)-4-pyrimidineamine]	≤ 1000	≤ 1	IC50 [12]: ≤ 1 µM; IC50 [2]: ≤ 1 µM; IC50 [5]: ≤ 1 µM; IC50 [11]: ≤ 1 µM
Cc1ccc(-c2ncc(F)c(N(C)c3ccc4c(c3)OCCO4)n2)s1 [Compound 33, N4-(3,4-Ethylenedioxyphenyl)-5-fluoro-N-4-methyl-2-(5-methyl-2-thienyl)-4-pyrimidineamine]	1000 to 10000	≤ 10	
Cc1cscc1-c1ncc(F)c(N(C)c2ccc3c(c2)OCCO3)n1 [Compound 34, N4-(3,4-Ethylenedioxyphenyl)-5-fluoro-N-4-methyl-2-(4-methyl-3-thienyl)-4-pyrimidineamine]	≤ 1000	≤ 1	
CN(c1ccc2c(c1)OCCO2)c1nc(-c2cc3ccccc3s2)ncc1F [Compound 35, 2-(Benzothiophen-2-yl)-N-4-(3,4-ethylenedioxyphenyl)-5-fluoro-N-4-methyl-4-pyrimidineamine]	> 20000	> 20	
CN(c1ccc2c(c1)OCCO2)c1nc(-c2csc3ccccc23)ncc1F [Compound 36, 2-(Benzothiophen-3-yl)-N-4-(3,4-ethylenedioxyphenyl)-5-fluoro-N-4-methyl-4-pyrimidineamine]	> 20000	> 20	
CN(c1ccc2c(c1)OCCO2)c1nc(-c2ccc(Cl)s2)ncc1F [Compound 37, 2-(5-Chloro-2-thienyl)-N-4-(3,4-ethylenedioxyphenyl)-5-fluoro-N-4-methyl-4-pyrimidineamine]	10000 to 20000	> 20	
CN(c1ccc2c(c1)OCCO2)c1nc(-c2ccsc2C=O)ncc1F [Compound 39, N4-(3,4-ethylenedioxyphenyl)-5-fluoro-2-(2-formylthien-3-yl)-N-4-methyl-4-pyrimidineamine]	≤ 1000	≤ 1	
CNCc1sccc1-c1ncc(F)c(N(C)c2ccc3c(c2)OCCO3)n1 [Compound 40, N4-(3,4-ethylenedioxyphenyl)-5-fluoro-N-4-methyl-2-(2-methylaminomethylenethien-3-yl)-4-pyrimidineamine]	1000 to 10000	≤ 10	
CN(c1ccc2c(c1)OCCO2)c1nc(-c2cc[s+]([O-])c2)ncc1F (stereo not shown) [Compound 41, N4-(3,4-ethylenedioxyphenyl)-5-fluoro-N-4-methyl-2-(1-oxide-3-thienyl)-4-pyrimidineamine]	1000 to 10000	≤ 10	
N4-(3,4-Ethylenedioxyphenyl)-5-fluoro-2-(3-hydroxyphenyl)-N-4-methyl-4-pyrimidineamine [Compound 19]	1000 to 10000	≤ 10	

Source: US7482351B2, “4-pyrimidineamine compounds and their uses as anti-proliferative agents” (Rigel Pharmaceuticals, Inc., priority 2004, dated 2009)
